Source: ChEMBL document CHEMBL3046689, “Volatile aldehydes are promising broad-spectrum postharvest insecticides” (J Agric Food Chem, 2000)
≈ marks a conversion by molar mass, not a printed value. Calls of active or inactive are those of the source. No cut-off for these calls is given here.

Columns and labels:
Lactuca sativa [1] = assay: Phytotoxicity in naked Lactuca sativa (lettuce) assessed as residual aldehyde odor after compound application through two-tier reduced pressure fumigation at 30 mmHg for 0.5 hr and then 760 mmHg for 1.5 hr at 23 +/- 1 degC after 2 hr; assay type: organism-based; details: in vivo
Myzus persicae [2] = assay: Insecticidal activity against Myzus persicae (green peach aphid) applied through two-tier reduced pressure fumigation at 30 mmHg for 0.5 hr and then 760 mmHg for 1.5 hr at 23 +/- 1 degC; assay type: functional
Tetranychus urticae = assay: Insecticidal activity against Tetranychus urticae (two-spotted spider mite); assay type: functional, organism-based
Bemisia = assay: Insecticidal activity against Bemisia sp.; assay type: functional, organism-based
Lactuca sativa [3] = assay: Phytotoxicity in naked Lactuca sativa (lettuce) assessed as change in visual quality after compound application through two-tier reduced pressure fumigation at 30 mmHg for 0.5 hr and then 760 mmHg for 1.5 hr at 23 +/- 1 degC after 2 hr; assay type: organism-based; details: in vivo
[4] = tested on: Frankliniella occidentalis; assay: Insecticidal activity against Frankliniella occidentalis (western flower thrips); assay type: functional, organism-based
Brevicoryne brassicae = assay: Insecticidal activity against Brevicoryne brassicae (cabbage aphids); assay type: functional, organism-based
Myzus persicae [5] = assay: Potentiation factor, ratio of LD50 for Myzus persicae (green peach aphid) applied through atmospheric pressure fumigation at 760 mmHg for 2 hr at 23 +/- 1 degC to LD50 for Myzus persicae (green peach aphid) applied through two-tier reduced pressure fumigation at 30 mmHg for 0.5 hr and then 760 mmHg for 1.5 hr at 23 +/- 1 degC; assay type: functional
Myzus persicae [6] = assay: Insecticidal activity against Myzus persicae (green peach aphid) applied through atmospheric pressure fumigation at 760 mmHg for 2 hr at 23 +/- 1 degC; assay type: functional; details: read-out: LD50 (the source's name)
Pseudococcus affinis = assay: Insecticidal activity against Pseudococcus affinis; assay type: functional, organism-based
Myzus persicae [7] = assay: Insecticidal activity against Myzus persicae (green peach aphid) placed under third leaf of naked Iceburg lettuce heads and after compound application for 2 hr through two-tier reduced pressure fumigation at 30 mmHg for 0.5 hr and then 760 mmHg for 1.5 hr at 23 +/- 1 degC measured after 24 hr; assay type: functional
Myzus persicae [8] = assay: Insecticidal activity against Myzus persicae (green peach aphid) applied through two-tier reduced pressure fumigation at 30 mmHg for 0.5 hr and then 760 mmHg for 1.5 hr at 15 degC; assay type: functional; details: read-out: LD50 (the source's name)
Pseudococcus viburni = assay: Insecticidal activity against Pseudococcus viburni; assay type: functional, organism-based
[9] = Myzus persicae, read-out: LD50 (the source's name)

CCCC=O [BUTANAL]
Activity (Lactuca sativa [1]): Toxic | CTP (Myzus persicae [2]): 21.6 mg/L.hr | LC50 (Myzus persicae [2]; [9]): 10.8 µg/mL (≈ 150 µM) | Activity (Tetranychus urticae): inactive | Activity (Bemisia): Active | Activity (Lactuca sativa [3]): Toxic | Activity [4]: Active | Activity (Brevicoryne brassicae): inactive | Ratio (Myzus persicae [5]): 2.4 | LC50 (Myzus persicae [6]): 26.1 µg/mL (≈ 362 µM) | Activity (Pseudococcus affinis): Active | LD90 (Myzus persicae [7]): 177.5 mg/L | LC50 (Myzus persicae [7]; [9]): 130 µg/mL (≈ 1800 µM) | LC50 (Myzus persicae [8]): 31 µg/mL (≈ 430 µM) | Activity (Pseudococcus viburni): Active
